Measurements reported in patent US4721715A, “Derivatives of 4-(arylpiperazinyl-ethylaminoethoxy) phenol useful for effecting hypolipidemic therapy or cardiovascular therapy” (Societe Cortial, S.A., priority 1984, dated 1988).
Structures can show the parent of a compound that is named as a salt.

How the values were obtained:
fasting mice = assay: Hypoglycemic activity: blood sugar of fasting mice subjected to an excess of glucose; assay type: in vivo; conditions: one hour after oral 100 mg per kg, excess of glucose (1 g per kg)
Protocol: (§1) Hypoglycemic Activity: One hour after oral administration of a dose of 100 mg/kg, COR 2839 produced a 21% reduction in the glucose tolerance curve after an excess of starch (2.5 g per kg). One hour after oral administration of a dose of 100 mg per kg, COR 2839 brought about a decrease of 24% in the blook sugar of fasting mice subjected to an excess of glucose (1 g per kg) at the time that the test product was tiven.

mice [1] = assay: Toxicity, intraperitoneal administration to mice
glucose tolerance curve = assay: Hypoglycemic activity: glucose tolerance curve after an excess of starch; assay type: in vivo; conditions: one hour after oral 100 mg/kg, excess of starch (2.5 g per kg)
Protocol: as §1

mice [2] = assay: Toxicity, oral administration to mice; assay type: in vivo; conditions: oral dose of 300 mg/kg
platelet aggregation = assay: Platelet anti-aggregation activity: sodium arachidonate-induced aggregation in rabbit plasma with a high platelet content; assay type: cell-based; conditions: Oryctolagus cuniculus, 50 mcg/ml sodium arachidonate; for inhibition at 5 µg/mL: 5 mcg/ml
Source text: In the presence of aspirin, this inhibition was 100% in a concentration of 2.5 mcg/ml COR 2860 and a concentration of 5 mcg/ml COR 2864. In the absence of aspirin, the inhibition was 100% with a concentration of 5 mcg/ml COR 2860 and 10 mcg/ml COR 2864.

[3] = test system: phenylephrine-induced hypertension; assay: Alpha-blocking activity in vivo: antagonism of phenylephrine-induced hypertension in rats with spinal cord removal and bivagotomy; conditions: intravenous; for inhibition in vivo at 3 µmol/kg / ED50: Rattus norvegicus; for inhibition in vivo at 3 µmol/kg: read-out: maximum activity (antagonism of phenylephrine-induced hypertension)
Protocol: (§2) Alpha-blocking activity was determined in vivo in mice with the test involving inhibition of mydriasis induced by norepinephrine. […] Thirty minutes later, 0.75 mg/kg norepinephrine was administered intravenously. […] In vivo alpha-blocking activity was also evaluated by determination of antagonism of phenylephrine-induced hypertension. The test products were administered by the intravenous route to rats that had undergone spinal cord removal and bivagotomy according to the technique by J. S. Gillespie and T. S. Muir (Br. J. Pharmac. Chemother. 30:78-87, 1967). The dosage, maximum activity, and the interval after which residual activity was equal to 50% of the maximum activity are presented below: […]

[4] = test system: passive cutaneous anaphylaxis; assay: Passive cutaneous anaphylaxis test in rats; assay type: in vivo
Protocol: Antiallergy-Antihistamine Activity: In the passive cutaneous anaphylaxis test, COR 2833 and COR 2838 given to rats in an intravenous dose of 10 mg/kg produced 53 and 60% activity, respectively. Under the same conditions, COR 2831 produced 67% activity in an oral dose of 5 mg/kg.

[5] = test system: isolated guinea pig ileum (histamine); assay: Antihistamine activity in vitro: histamine-induced contractions of isolated guinea pig ileum; conditions: histamine 5.10^-7 g/ml
[6] = test system: isolated guinea pig ileum (serotonin); assay: Antiserotonin activity in vitro: serotonin-induced contractions of isolated guinea pig ileum; conditions: serotonin 10^-6 g/ml
Source text: Antiserotonin Activity: In vitro, contractions induced in isolated guinea pig ileum by 10^-6 g/ml serotonin were inhibited by COR 2838 in a concentration of 4.10^-7 g/ml and COR 2831 and COR 2833 in a concentration of 2.10^-6 g/ml.

[7] = Toxicity, oral administration to mice; assay type: in vivo; conditions: mouse, in vivo, oral route, confidence interval in parentheses
[8] = test system: spontaneously hypertensive rats; assay: Antihypertensive activity, spontaneously hypertensive rats, oral, two days, sphygmomanometer; assay type: in vivo; conditions: 100 mg/kg/day for two days, one hour after gavage
Protocol: Antihypertensive Activity: The test products were administered orally to spontaneously hypertensive rats. Arterial pressure was measured indirectly with a sphygmomanometer.

Alpha-1 [9] = assay: Type of antagonism vis-a-vis norepinephrine on isolated rabbit aorta strips (cumulative curve method, Van Rossum, in presence of cocaine); conditions: 30 minutes interval
Protocol: Alpha-1 Blocking Activity: Alpha-1 blocking activity is evaluated in vitro by determination of the antagonism of contractions induced in isolated rabbit aorta strips by norepinephrine used in a concentration of 2.10^-6 mol/1 according to a technique derived from that described by Furchgott and Bhadrakom (J. Pharmacol. 108:129-43, 1953). The IC50 (concentration inhibiting 50% of the contractions) as well as the interval between introduction of the test product and of the […] into the bath, which corresponds to the maximum activity, are presented below for the derivatives according to the present invention: COR 2831, 90 min, 1.10·10^-7 (9.26·10^-8 -1.31·10^-7)mol/1; COR 2837, 30 min, 1.64·10^-6 (1.44·10^-6 -1.85·10^-6) mol/1; COR 2841, 60 min, 1.16·10^-6(9.24·10^-7 -1.46·10^-6) mol/1; COR 2843, 60 min, 9.82·10^ -7 (7.67·10^-7 -1.26·10^-6) mol/1; COR 2838, 60 min, 2.53·10^-6(2.15·10^-6 -2.98·10^-6 mol/1. The type of antagonism that COR 2831 exerts vis-a-vis norepinephrine was determined on the same type of preparation for an interval of 30 minutes, using the cumulative curve method according to Van Rossum in the presence of cocaine.

Alpha-1 [10] = assay: Alpha-1 blocking activity in vitro: antagonism of norepinephrine-induced contractions of isolated rabbit aorta strips; conditions: norepinephrine 2.10^-6 mol/1
[11] = Toxicity, intravenous administration to mice; assay type: in vivo; conditions: mouse, in vivo, intravenous route
histamine = assay: Combined anaphylactic reaction (IgE) and cutaneous histamine reaction in the same rat: histamine reaction; assay type: in vivo, Sprague-Dawley rat
Protocol: (§3) Antihistamine-antiallergy activity was also determined by combining an anaphylactic reaction (IgE) and a cutaneous histamine reaction in the same animal (Sprague-Dawley rat). Activity was evaluated by the quantity of Evans blue liberated at each reaction site as compared with control animals receiving the administration vehicle. COR 2831 produced the following ED50 values in this test: […]

IgE = assay: Combined anaphylactic reaction (IgE) and cutaneous histamine reaction in the same rat: IgE reaction; assay type: in vivo, Sprague-Dawley rat
Protocol: as §3

[12] = test system: norepinephrine-induced mydriasis; assay: Alpha-blocking activity in vivo: inhibition of norepinephrine-induced mydriasis in mice; conditions: 25 mg/kg, 0.75 mg/kg norepinephrine IV
Protocol: as §2

[13] = test system: strips of mesenteric veins; assay: Anticalcium activity: calcium-induced increment of spontaneous contractions in mesenteric vein strips; conditions: 5.10^-6 g/ml, rats with normal blood pressure
Source text: At 5.10^-6 g/ml, COR 2838 inhibited the calcium-induced increment of spontaneous contractions in strips of mesenteric veins from rats with normal blood pressure.

left guinea pig auricle = assay: Anticalcium activity: electrically stimulated left guinea pig auricle, calcium-induced contraction force; conditions: 25.10^-6 g/ml; 0.6 mM calcium added; 150 beats/min, low calcium Tyrode's solution
[14] = Solubility and hygroscopicity of the isolated product; assay type: physicochemical; conditions: dihydrochloride
Protocol: A solution of 6 g 4-isopropyl-2-methyl-4-methylaminoethoxy phenol and 6 g 1-chloroethyl-4-phenylpiperazine in 10 ml triethylamine and 150 ml ethyl alcohol is heated for 20 hours in a reflux system. The excess ethyl alcohol and triethylamine are evaporated. The residue is taken up in an aqueous solution of hydrochloric acid. The solution obtained is extracted with chloroform. The aqueous phase is alkalized with ammonia and then extracted again with chloroform. After drying and evaporation of the chloroform, 9.3 g of crude product is obtained. This is purified by silica chromatography using as the eluent pure chloroform followed by a mixture of 98% chloroform and 2% methanol. This procedure yield 4.6 g of free base; yield, 42%. The latter is transformed into a hydrochloride by a saturated ethyl ether solution in gaseous hydrochloric acid. This produces a white solid which is filtered and washed with a little ethyl ether.

[15] = mice, intraperitoneal dose of 200 mg per kg

Cc1cc(OCCN2CCN(c3cccc(C(F)(F)F)c3)CC2)c(C(C)C)cc1O [COR 2839, 5-Isopropyl-2-methyl-4-(3-trifluoromethylphenyl) piperazinyl-ethoxy)phenol hydrochloride]
decrease in the blood sugar (fasting mice): 24%
deaths (mice [1]; [15]): no deaths
reduction in the glucose tolerance curve (glucose tolerance curve): 21%

Cc1cc(OCCN2CCN(c3ccccc3Cl)CC2)c(C(C)C)cc1O [COR 2864, 5-Isopropyl-2-methyl-4-((2-chlorophenyl)piperazinylethoxy)phenol hydrochloride]
deaths (mice [2]): no deaths
inhibition at 5 µg/mL (platelet aggregation; in the presence of aspirin (1 mcg/ml)): 100%
inhibition at 10 µg/mL (platelet aggregation; 10 mcg/ml, in the absence of aspirin): 100%
deaths (mice [1]; [15]): no deaths
inhibition in vivo at 3 µmol/kg ([3]; 3.10^-6 M/kg): 98.6%

Cc1cc(OCCN2CCN(c3cccc(Cl)c3)CC2)c(C(C)C)cc1O [COR 2842, 5-Isopropyl-2-methyl-4-((3-chlorophenyl)piperazinylethoxy)phenol hydrochloride]
deaths (mice [2]): no deaths
deaths (mice [1]; [15]): no deaths
inhibition in vivo at 3 µmol/kg ([3]; 3.10^-6 M/kg): 35.1%

Cc1cc(OCCN2CCN(c3ccccc3)CC2)c(C(C)C)cc1O [COR 2837, 5-Isopropyl-2-methyl-4-phenylpiperazinylethoxyphenol hydrochloride]
deaths (mice [2]): no deaths
deaths (mice [1]; [15]): no deaths
inhibition in vivo at 3 µmol/kg ([3]; 3.10^-6 M/kg): 91.1%

COc1ccccc1N1CCN(CCN(C)CCOc2cc(C)c(O)cc2C(C)C)CC1 [COR 2833, 5-Isopropyl-2-methyl-4-((N-methyl N-2-((2-methoxyphenyl)piperazinylethyl)amino)ethoxyphenoldihydrochloride]
activity in the passive cutaneous anaphylaxis test ([4]; intravenous, 10 mg/kg): 53%
inhibition of histamine-induced contractions ([5]; concentration of 2.10^-6): 80%
inhibition of serotonin-induced contractions ([6]; 2.10^-6 g/ml): inhibited

Cc1cc(OCCN2CCN(c3cccc(C)c3C)CC2)c(C(C)C)cc1O [COR 2861, 5-Isopropyl-2-methyl-4-((2,3-dimethylphenylpiperazinyl)ethoxyphenol hydrochloride]
deaths (mice [2]): no deaths
deaths (mice [1]; [15]): no deaths
inhibition in vivo at 3 µmol/kg ([3]; 3.10^-6 M/kg): 66.4%

COc1ccccc1N1CCN(CCOc2cc(C)c(O)cc2C(C)C)CC1 [COR 2831, 5-Isopropyl-2-methyl-4-(2-methoxyphenylpiperazinyl)ethoxy)phenol hydrochloride]
deaths (mice [2]): no deaths
LD50 [7]: 1130 mg/kg
activity in the passive cutaneous anaphylaxis test ([4]; oral, 5 mg/kg): 67%
maximum pressure reduction ([8]; first day): 26%
maximum pressure reduction ([8]; second day): 21%
inhibition of histamine-induced contractions ([5]; 10^-5 g/ml): 80%
pA2 (Alpha-1 [9]; Arunlakshama and Schild method): 8.59±0.08
type of antagonism (Alpha-1 [9]; vis-a-vis norepinephrine): competitive nature
interval between introduction of the test product and of the […] into the bath, which corresponds to the maximum activity (Alpha-1 [10]): 90 min
LD50 [11]: 86 mg/kg
deaths (mice [1]; [15]): no deaths
ED50 ([3]; 2 min, after 2 min): 0.0195 µmol/kg
ED50 ([3]; 0.5 h, after 30 min): 0.304 µmol/kg
ED50 ([3]; 1 h, after 60 min): 0.84 µmol/kg
inhibition in vivo at 3 µmol/kg ([3]; 3.10^-6 M/kg): 129%
interval after which residual activity was equal to 50% of the maximum activity ([3]; 3.10^-6 M/kg): > 2 h
ED50 (histamine; IV route): 0.37 mg/kg
ED50 (histamine; Oral route): 8 mg/kg
inhibition of serotonin-induced contractions ([6]; 2.10^-6 g/ml): inhibited
ED50 (IgE; IV route): 0.27 mg/kg
ED50 (IgE; Oral route): 14.4 mg/kg

COc1ccc(N2CCN(CCOc3cc(C)c(O)cc3C(C)C)CC2)cc1 [COR 2860, 5-Isopropyl-2-methyl-4-((4-methoxyphenylpiperazinyl)ethoxy)phenol dihydrochloride]
deaths (mice [2]): no deaths
inhibition at 2.5 µg/mL (platelet aggregation; 2.5 mcg/ml, in the presence of aspirin (1 mcg/ml)): 100%
inhibition at 5 µg/mL (platelet aggregation; in the absence of aspirin): 100%
deaths (mice [1]; [15]): no deaths
inhibition in vivo at 3 µmol/kg ([3]; 3.10^-6 M/kg): 39.7%

Cc1cc(OCCN2CCN(c3ccc(F)cc3)CC2)c(C(C)C)cc1O [COR 2841, 5-Isopropyl-2-methyl-4-(p-fluorophenylpiperazinylethoxy)phenol hydrochloride]
deaths (mice [2]): no deaths
inhibition in vivo at 3 µmol/kg ([3]; 3.10^-6 M/kg): 39.8%

CC(CCc1ccccc1)NCC(O)c1ccc(O)c(C(N)=O)c1 (centres unmarked) [labetalol, reference compound]
inhibition of mydriasis [12]: 58%

Cc1cc(OCCN2CCN(c3ccccc3C)CC2)c(C(C)C)cc1O [COR 2843, 5-Isopropyl-2-methyl-4-(2-methylphenyl) piperazinylethoxy phenol hydrochloride]
deaths (mice [2]): no deaths
deaths (mice [1]; [15]): no deaths
inhibition in vivo at 3 µmol/kg ([3]; 3.10^-6 M/kg): 112%

Cc1cc(OCCN(C)CCN2CCN(c3ccccc3)CC2)c(C(C)C)cc1O [COR 2838, 5-Isopropyl-2-methyl-4-((N-methyl N-2-(phenylpiperazinyl-ethyl)amino)ethoxy) phenol dihydrochloride]
activity in the passive cutaneous anaphylaxis test ([4]; intravenous, 10 mg/kg): 60%
inhibition of histamine-induced contractions ([5]; 10^-5 g/ml): 80%
inhibition of calcium-induced increment of spontaneous contractions [13]: inhibited
interval between introduction of the test product and of the […] into the bath, which corresponds to the maximum activity (Alpha-1 [10]): 60 min
deaths (mice [1]; mouse, in vivo, ip, 50 mg/kg): no deaths
inhibition of the increment in the contraction force induced by calcium (left guinea pig auricle): 50%
inhibition in vivo at 3 µmol/kg ([3]; 3.10^-6 M/kg): 60%
inhibition of serotonin-induced contractions ([6]; 4.10^-7 g/ml): inhibited
hygroscopicity [14]: hygroscopic
solubility in water [14]: soluble in water
